Assay results reported in US20240300991A1, “NUCLEOSIDE DERIVATIVE HAVING MULTI-TARGET KINASE INHIBITORY ACTIVITY AND PHARMACEUTICAL COMPOSITION FOR PREVENTING AND TREATING CANCER COMPRISING SAME” (FUTURE MEDICINE CO., LTD., priority 2021, published 2024).

Assays:
FLT3 = target: T1, FLT3 (Homo sapiens, UniProt P36888); experiment: Kinase inhibition test (DNA-tagged kinase, affinity resin, qPCR readout); format: binding; design: key: (−) indicates no effect; (+) indicates weak inhibitory activity; (++) indicates a moderate level of inhibitory activity; (+++) indicates strong inhibitory activity; settings: 1 μM of compound
T1 construct: made in house
T1 sequence (P36888 27-993): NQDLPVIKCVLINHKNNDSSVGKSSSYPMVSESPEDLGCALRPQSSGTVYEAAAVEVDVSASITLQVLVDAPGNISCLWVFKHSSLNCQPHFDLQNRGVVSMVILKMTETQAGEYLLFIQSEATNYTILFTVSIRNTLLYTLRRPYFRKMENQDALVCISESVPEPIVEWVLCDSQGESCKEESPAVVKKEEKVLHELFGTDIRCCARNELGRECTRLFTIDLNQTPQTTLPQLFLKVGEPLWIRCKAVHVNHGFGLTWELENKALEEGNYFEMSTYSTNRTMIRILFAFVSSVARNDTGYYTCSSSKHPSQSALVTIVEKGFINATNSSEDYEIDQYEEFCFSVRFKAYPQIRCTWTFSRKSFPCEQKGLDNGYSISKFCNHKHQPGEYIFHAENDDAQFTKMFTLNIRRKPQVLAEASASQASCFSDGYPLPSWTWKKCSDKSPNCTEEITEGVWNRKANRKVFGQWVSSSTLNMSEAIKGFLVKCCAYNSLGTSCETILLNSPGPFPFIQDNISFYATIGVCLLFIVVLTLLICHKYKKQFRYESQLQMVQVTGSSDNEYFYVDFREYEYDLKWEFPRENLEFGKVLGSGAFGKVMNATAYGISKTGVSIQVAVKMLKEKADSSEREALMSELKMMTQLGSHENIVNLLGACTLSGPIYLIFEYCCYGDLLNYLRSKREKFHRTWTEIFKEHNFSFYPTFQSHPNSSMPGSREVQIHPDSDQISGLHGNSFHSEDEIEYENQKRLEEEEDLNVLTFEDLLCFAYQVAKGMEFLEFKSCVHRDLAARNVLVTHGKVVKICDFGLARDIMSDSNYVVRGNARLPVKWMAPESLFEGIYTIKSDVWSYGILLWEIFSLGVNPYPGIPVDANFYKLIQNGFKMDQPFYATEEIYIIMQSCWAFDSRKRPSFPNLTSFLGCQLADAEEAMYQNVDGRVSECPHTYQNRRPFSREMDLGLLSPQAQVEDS
From the text: (§1) In order to examine the inhibitory activity of the nucleoside derivatives of the present invention synthesized in the Preparation Examples against kinases, the nucleoside derivatives were confirmed to have inhibitory activity against neurotrophic tyrosine kinase receptor type 1 or tropomyosin receptor kinase A (NTRK1), casein kinase 1 isoform delta (CSNK1D), dual specificity tyrosine-phosphorylation-regulated kinase 1A (DYRK1A), dual specificity tyrosine-phosphorylation-regulated kinase 1B (DYRK1B) and receptor-type tyrosine-protein kinase or fms like tyrosine kinase 3 or cluster of differentiation antigen 135 (CD135) or fetal liver kinase-2 (Flk2) (FLT3).
(§2) The inhibition measurement method is as follows. Most of the kinases were produced by culturing a phage in which BL21 E. coli was tagged with a kinase at 32° C. until lysis, followed by centrifugation and filtration. Further, the kinases were produced using HEK-293 cells. Thereafter, the kinases were DNA tagged for qPCR. After an affinity resin was prepared by stirring a biotin-tagged substrate onto streptavidin-coated beads for 30 minutes, a non-specifically bound substrate was washed with a buffer (SeaBlock (Pierce), 1% BSA, 0.05% Tween 20, 1 mM DTT).
(§3) For a kinase test, the kinase, the substrate, the affinity resin, and a test material dissolved in dimethyl sulfoxide were stirred together in a buffer (20% SeaBlock, 0.17×PBS, 0.05% Tween20, and 6 mM DTT) at room temperature for 1 hour. Thereafter, an affinity substrate was washed with a buffer (1×PBS, 0.05% Tween20), and then suspended in an elution buffer (1×PBS, 0.05% Tween20, 0.5 μM non-biotinylated affinity ligand), and the resulting suspension was stirred. The concentration of the kinase was quantified by qPCR.

DYRK1B = target: T2, DYRK1B (Homo sapiens, UniProt Q9Y463); experiment: as above; format: binding; design: key: (−) indicates no effect; (+) indicates weak inhibitory activity; (++) indicates a moderate level of inhibitory activity; (+++) indicates strong inhibitory activity; settings: 1 μM of compound
T2 construct: made in house
From the text: as §1, §2, §3

CSNK1D = target: T3, CSNK1D (Homo sapiens, UniProt P48730); experiment: as above; format: binding; design: key: (−) indicates no effect; (+) indicates weak inhibitory activity; (++) indicates a moderate level of inhibitory activity; (+++) indicates strong inhibitory activity; settings: 1 μM of compound
T3 construct: made in house
From the text: as §1, §2, §3

DYRK1A = target: T4, DYRK1A (Homo sapiens, UniProt Q13627); experiment: as above; format: binding; design: key: (−) indicates no effect; (+) indicates weak inhibitory activity; (++) indicates a moderate level of inhibitory activity; (+++) indicates strong inhibitory activity; settings: 1 μM of compound
T4 construct: made in house
From the text: as §1, §2, §3

NTRK1 = target: T5, NTRK1 (Homo sapiens, UniProt P04629); experiment: as above; format: binding; design: key: (−) indicates no effect; (+) indicates weak inhibitory activity; (++) indicates a moderate level of inhibitory activity; (+++) indicates strong inhibitory activity; settings: 1 μM of compound
T5 construct: made in house
From the text: as §1, §2, §3

[1] = system: HCT116 (colon cancer cells); experiment: Inhibitory activity against cancer cells (sulforhodamine B staining); format: cell-based; settings: 3 days, SRB staining
Method: (§4) In order to examine the anticancer activity of the nucleoside derivatives of the present invention synthesized in the Preparation Examples, the ICso of each of A549 (lung cancer cells), HCT116 (colon cancer cells), MDA-MB-231 (breast cancer cells), SK-Hep-1 (liver cancer cells), SNU638 (stomach cancer cells) and PC-3 (prostate cancer cells) against cancer cells was measured.
(§5) The test method is as follows. Cells were allowed to stand for 1 day and set as a control on day 0. Further, after a test material was added to the cells, the cells were allowed to stand for 3 days. Thereafter, the cells were stained with 1% acetic acid and 0.4% sulforhodamine B. The stained cells were dried and dissolved in 10 mM Tris (pH 10.0). Absorbance was measured at 515 nm, and the degree of cell division was determined using the following equation. After calculation as Cell division (%)=(average absorbancetest material−average absorbanceday 0)/(average absorbance control-average absorbanceday 0)×100, the degree of cell division was calculated through a non-linear regression analysis using Table Curve 2D v5.01 (Systat Software Inc., San Jose, CA, USA).

[2] = system: PC-3 (prostate cancer cells); experiment: as above; format: cell-based; settings: 3 days, SRB staining
Method: as §4, §5

[3] = system: SK-Hep-1 (liver cancer cells); experiment: as above; format: cell-based; settings: 3 days, SRB staining
Method: as §4, §5

A549 (lung cancer cells) = experiment: as above; format: cell-based; settings: 3 days, SRB staining
Method: as §4, §5

[4] = system: SNU638 (stomach cancer cells); experiment: as above; format: cell-based; settings: 3 days, SRB staining
Method: as §4, §5

[5] = system: MDA-MB-231 (breast cancer cells); experiment: as above; format: cell-based; settings: 3 days, SRB staining
Method: as §4, §5

T2 sequence (Q9Y463 whole entry): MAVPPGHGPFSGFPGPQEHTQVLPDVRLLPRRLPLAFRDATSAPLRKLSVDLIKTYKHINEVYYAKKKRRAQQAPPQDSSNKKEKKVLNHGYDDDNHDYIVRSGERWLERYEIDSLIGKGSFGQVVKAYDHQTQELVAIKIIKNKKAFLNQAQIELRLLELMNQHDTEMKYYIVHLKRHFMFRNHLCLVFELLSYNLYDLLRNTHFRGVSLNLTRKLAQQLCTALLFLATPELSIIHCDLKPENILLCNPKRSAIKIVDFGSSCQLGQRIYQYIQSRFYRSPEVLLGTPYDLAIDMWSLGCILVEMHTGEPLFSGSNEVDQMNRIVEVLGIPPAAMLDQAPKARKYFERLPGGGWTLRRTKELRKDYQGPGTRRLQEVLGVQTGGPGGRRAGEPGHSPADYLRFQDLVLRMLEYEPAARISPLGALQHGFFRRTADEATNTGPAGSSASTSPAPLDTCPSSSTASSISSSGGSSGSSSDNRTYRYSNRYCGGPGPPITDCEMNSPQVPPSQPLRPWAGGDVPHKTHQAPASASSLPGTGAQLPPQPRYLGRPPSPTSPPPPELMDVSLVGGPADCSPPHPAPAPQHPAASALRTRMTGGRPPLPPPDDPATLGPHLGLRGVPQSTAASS
T5 sequence (P04629 33-796): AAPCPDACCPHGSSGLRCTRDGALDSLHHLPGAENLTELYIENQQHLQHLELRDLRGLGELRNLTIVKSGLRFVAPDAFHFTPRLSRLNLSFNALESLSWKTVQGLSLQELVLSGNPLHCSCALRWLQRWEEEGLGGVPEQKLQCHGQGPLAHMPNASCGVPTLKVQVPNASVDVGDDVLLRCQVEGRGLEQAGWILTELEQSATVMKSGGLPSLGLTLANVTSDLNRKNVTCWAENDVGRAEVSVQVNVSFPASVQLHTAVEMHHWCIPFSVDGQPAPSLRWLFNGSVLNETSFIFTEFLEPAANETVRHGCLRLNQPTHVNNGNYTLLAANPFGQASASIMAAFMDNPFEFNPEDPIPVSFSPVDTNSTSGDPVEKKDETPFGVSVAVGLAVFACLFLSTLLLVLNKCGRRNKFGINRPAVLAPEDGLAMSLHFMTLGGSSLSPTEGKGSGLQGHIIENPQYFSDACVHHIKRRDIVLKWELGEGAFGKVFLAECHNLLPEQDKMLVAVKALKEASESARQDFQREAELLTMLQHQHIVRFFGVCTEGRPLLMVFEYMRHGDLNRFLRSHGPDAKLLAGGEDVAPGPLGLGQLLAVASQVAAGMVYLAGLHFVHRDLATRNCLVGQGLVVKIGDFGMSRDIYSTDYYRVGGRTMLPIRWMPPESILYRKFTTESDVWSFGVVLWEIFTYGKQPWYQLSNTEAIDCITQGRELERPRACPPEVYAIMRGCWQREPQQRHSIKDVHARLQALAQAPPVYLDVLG
T3 sequence (P48730 whole entry): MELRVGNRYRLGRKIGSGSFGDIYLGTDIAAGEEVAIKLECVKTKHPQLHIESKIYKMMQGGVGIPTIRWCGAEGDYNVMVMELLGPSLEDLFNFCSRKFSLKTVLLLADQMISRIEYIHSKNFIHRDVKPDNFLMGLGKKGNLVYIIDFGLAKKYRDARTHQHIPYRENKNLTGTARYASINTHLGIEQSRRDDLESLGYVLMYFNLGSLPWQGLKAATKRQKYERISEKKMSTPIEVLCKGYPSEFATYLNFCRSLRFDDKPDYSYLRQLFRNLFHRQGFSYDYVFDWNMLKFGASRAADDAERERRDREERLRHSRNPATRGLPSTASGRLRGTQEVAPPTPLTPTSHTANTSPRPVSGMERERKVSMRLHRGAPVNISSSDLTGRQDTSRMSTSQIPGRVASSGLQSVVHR

| Structure (SMILES) | FLT3 inhibitory activity (FLT3) | DYRK1B inhibitory activity (DYRK1B) | CSNK1D inhibitory activity (CSNK1D) | DYRK1A inhibitory activity (DYRK1A) | NTRK1 inhibitory activity (NTRK1) | IC50 [1] [nM] | IC50 [2] [nM] | IC50 [3] [nM] | IC50 (A549 (lung cancer cells)) [nM] | IC50 [4] [nM] | IC50 [5] [nM] |
| --- | --- | --- | --- | --- | --- | --- | --- | --- | --- | --- | --- |
| C#Cc1cn([C@@H]2S[C@H](CN)[C@@H](O)[C@H]2O)c2ncnc(N)c12 [Compound 10a] | +++ | ++ | +++ | +++ | +++ | 1350 | 1980 | 1400 | 1580 | 1330 | 1870 |
| C#Cc1cn([C@@H]2S[C@H](CNC(=O)c3ccc(OC)cc3)[C@@H](O)[C@H]2O)c2ncnc(N)c12 [Compound 8c] | – | ++ | ++ | +++ | +++ | 13700 | 14800 | 12200 | 10100 | 12200 | 10400 |
| NC(=O)NC[C@H]1S[C@@H](n2cc(C(N)=O)c3c(N)ncnc32)[C@H](O)[C@@H]1O [Compound 11aiii] | – | ++ | ++ | ++ | ++ | 1360 | 2810 | 7340 | 4530 | 5570 | 2460 |
| N#Cc1cn([C@@H]2SC[C@@H](O)[C@H]2O)c2ncnc(N)c12 [Compound 13f] | – | +++ | ++ | ++ | ++ | 6370 | 2450 | 5780 | 2360 | 9350 | 2410 |

Second part, the compound after the results:

| FLT3 inhibitory activity (FLT3) | DYRK1B inhibitory activity (DYRK1B) | CSNK1D inhibitory activity (CSNK1D) | DYRK1A inhibitory activity (DYRK1A) | NTRK1 inhibitory activity (NTRK1) | IC50 [1] [nM] | IC50 [2] [nM] | IC50 [3] [nM] | IC50 (A549 (lung cancer cells)) [nM] | IC50 [4] [nM] | IC50 [5] [nM] | Structure (SMILES) |
| --- | --- | --- | --- | --- | --- | --- | --- | --- | --- | --- | --- |
| ++ | +++ | ++ | +++ | +++ | 26300 | 29100 | 21200 | 28600 | 23300 | 32400 | C#Cc1cn([C@@H]2S[C@H](CNC(=O)c3ccccc3)[C@@H](O)[C@H]2O)c2ncnc(N)c12 [Compound 8b] |
| – | ++ | ++ | ++ | +++ | 2860 | 2050 | 570 | 3190 | 1310 | 2130 | C#Cc1cn([C@@H]2S[C@H](COC(=O)c3ccccc3)[C@@H](O)[C@H]2O)c2ncnc(N)c12 [Compound 7b] |
| – | +++ | +++ | +++ | +++ | 560 | 450 | 1050 | 230 | 120 | 380 | N#Cc1cn([C@@H]2S[C@H](CN=[N+]=[N-])[C@@H](O)[C@H]2O)c2ncnc(N)c12 [Compound 9b] |
| – | +++ | +++ | +++ | ++ | 3600 | 2960 | 5620 | 2580 | 3780 | 1560 | N#Cc1cn([C@@H]2S[C@H](COC(=O)c3ccccc3)[C@@H](O)[C@H]2O)c2ncnc(N)c12 [Compound 7g] |
